Patent US7989438B2, “Therapeutic compounds” (Istituto di Ricerche di Biologia Molecolare P. Angeletti SpA, priority 2007, dated 2011)
Like-named read-outs stand apart in the source and are kept apart here.

System: HCV subgenomic replication
Test: Cell based HCV replication assay (subgenomic replicon in Huh-7 cells, NS3 Cell-ELISA)
Details: activity ranges, read-out: IC50* (nM), Inhibition of HCV subgenomic replication
Method in brief: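 Huh-7 cells stably carrying the I377neo/NS3-3′/wt subgenomic replicon, seeded at 10^4 cells/well in DMEM/10% FCS and exposed to inhibitor for 96 h. NS3 expression was measured by Cell-ELISA (mAb 10E5/24, alkaline phosphatase, absorbance 405/620 nm), in duplicate. IC50 was fitted to the Hill equation, with background from parental Huh-7 cells.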

[1] = Hepatitis C virus, Huh-7, Table 3, various macrocycles
[2] = Hepatitis C virus, Huh-7, Table 5, various macrocycles

CN(C)CCN1CCOC2CCN(CC2)S(=O)(=O)NC(=O)c2ccc3c(C4CCCCC4)c4n(c3c2)C[C@@H]1COc1ccccc1-4 [Example 307, (20R)-31-cyclohexyl-21-[2-(dimethylamino)ethyl]-18,24-dioxa-2-thia-1,3,10,21-tetraazahexacyclo[23.2.2.1^5,9.1^8,11.1^10,20.0^12,17]dotriaconta-5(32),6,8,11(31),12,14,16-heptaen-4-one 2,2-dioxide] was tested, and the IC50 [1] was 150 to 500 nM.
O=C1NS(=O)(=O)N2CCN(CCN(CCF)[C@H]3COc4ccccc4-c4c(C5CCCCC5)c5ccc1cc5n4C3)CC2 [Example 308, (20R)-30-cyclohexyl-21-(2-fluoroethyl)-18-oxa-2-thia-1,3,10,21,24-pentaazahexacyclo[22.2.2.1^5,9.1^8,11.1^10,20.0^12,17]hentriaconta-5(31),6,8,11(30),12,14,16-heptaen-4-one 2,2-dioxide] showed an IC50 [1] of 25 to 150 nM.
O=C1NS(=O)(=O)N2CCCN(CCN(Cc3ccccc3)[C@H]3COc4ccccc4-c4c(C5CCCCC5)c5ccc1cc5n4C3)CC2 [Example 309, (20R)-21-benzyl-31-cyclohexyl-18-oxa-2-thia-1,3,10,21,24-pentaazahexacyclo[22.3.2.1^5,9.1^8,11.1^10,20.0^12,17]dotriaconta-5(32),6,8,11(31),12,14,16-heptaen-4-one 2,2-dioxide] showed an IC50 [1] of 150 to 500 nM.
CN1CCNCCN(C)S(=O)(=O)NC(=O)c2ccc3c(C4CCCCC4)c4n(c3c2)CC1COc1ccccc1-4 [Example 401, (7S)-14-cyclohexyl-18,24-dimethyl-7,8-dihydro-6H-7,11-(epiminoethanoiminoethanoiminothioiminomethano)-indolo[1,2-e][1,5]benzoxazocin-15-one 17,17-dioxide] was tested, and the IC50 (Table 4, various macrocycles) was 25 to 150 nM.
For CN(C)CCN1CCOCCN(C)S(=O)(=O)NC(=O)c2ccc3c(C4CCCCC4)c4n(c3c2)CC1COc1ccccc1-4 [Example 402, (7R)-14-cyclohexyl-24-[2-(dimethylamino)ethyl]-18-methyl-7,8-dihydro-6H-7,11-(epiminoethanooxyethanoiminothioiminomethano)indolo[1,2-e][1,5]benzoxazocin-15-one 17,17-dioxide], the IC50 (Table 4, various macrocycles) was < 25 nM.
In the case of C=CCc1cccc2c1OCC1Cn3c-2c(C2CCCCC2)c2ccc(cc23)C(=O)NS(=O)(=O)N(C)CCN(CC)CCN1C [Example 403, (7R)-4-allyl-14-cyclohexyl-21-ethyl-18,24-dimethyl-7,8-dihydro-6H-7,11-(epiminoethanoiminoethanoiminothioiminomethano)-indolo[1,2-e][1,5]benzoxazocin-15-one 17,17-dioxide], the IC50 (Table 4, various macrocycles) is reported as 25 to 150 nM.
CCN1CCN(C)C2COc3c(F)cccc3-c3c(C4CCCCC4)c4ccc(cc4n3C2)C(=O)NS(=O)(=O)N(C)CC1 [Example 404, (7R)-14-cyclohexyl-21-ethyl-4-fluoro-18,24-dimethyl-7,8-dihydro-6H-7,11-(epiminoethanoiminoethanoiminothioiminomethano)-indolo[1,2-e][1,5]benzoxazocin-15-one 17,17-dioxide] was tested, and the IC50 (Table 4, various macrocycles) was < 25 nM.
With CC(C)N1CCN(C)C2COc3c(F)cccc3-c3c(C4CCCCC4)c4ccc(cc4n3C2)C(=O)NS(=O)(=O)N(C)CC1 [Example 405, (7R)-14-cyclohexyl-4-fluoro-21-isopropyl-18,24-dimethyl-7,8-dihydro-6H-7,11-(epiminoethanoiminoethanoiminothioiminomethano)-indolo[1,2-e][1,5]benzoxazocin-15-one 17,17-dioxide] the IC50 (Table 4, various macrocycles) was < 25 nM.
CCN1CCN(C)C2COc3c(cccc3C(F)(F)F)-c3c(C4CCCCC4)c4ccc(cc4n3C2)C(=O)NS(=O)(=O)N(C)CC1 [Example 406, (7R)-14-cyclohexyl-21-ethyl-18,24-dimethyl-4-(trifluoromethyl)-7,8-dihydro-6H-7,11-(epiminoethanoiminoethanoiminothioiminomethano)-indolo[1,2-e][1,5]benzoxazocin-15-one 17,17-dioxide] gave an IC50 (Table 4, various macrocycles) of 150 to 500 nM.
With CN1CCN(C)[C@H]2COc3c(CC4CC4)cccc3-c3c(C4CCCCC4)c4ccc(cc4n3C2)C(=O)NS(=O)(=O)N(C)CC1 [Example 407, (7R)-14-cyclohexyl-4-(cyclopropylmethyl)-18,21,24-trimethyl-7,8-dihydro-6H-7,11-(epiminoethanoiminoethanoiminothioiminomethano)-indolo[1,2-e][1,5]benzoxazocin-15-one 17,17-dioxide] the IC50 (Table 4, various macrocycles) was < 25 nM.
Work on CN1CCN(CC(N)=O)C2COc3ccccc3-c3c(C4CCCCC4)c4ccc(cc4n3C2)C(=O)NS(=O)(=O)N(C)CC1 [Example 408, 2-[(7R)-14-cyclohexyl-18,21-dimethyl-17,17-dioxido-15-oxo-7,8-dihydro-6H-7,11-(epiminoethanoiminoethanoiminothioiminomethano)-indolo[1,2-e][1,5]benzoxazocin-24-yl]acetamide] yielded an IC50 (Table 4, various macrocycles) of 25 to 150 nM.
In the case of CN1CCN(Cc2cnn(C)c2)C2COc3ccccc3-c3c(C4CCCCC4)c4ccc(cc4n3C2)C(=O)NS(=O)(=O)N(C)CC1 [Example 409, (7R)-14-cyclohexyl-18,21-dimethyl-24-[(1-methyl-1H-pyrazol-4-yl)methyl]-7,8-dihydro-6H-7,11-(epiminoethanoiminoethanoiminothioiminomethano)-indolo[1,2-e][1,5]benzoxazocin-15-one 17,17-dioxide], the IC50 (Table 4, various macrocycles) is reported as < 25 nM.
CN1CCNCCN(C)S(=O)(=O)NC(=O)c2ccc3c(C4CCCCC4)c4n(c3c2)C[C@@H]1COc1c(CN2CCOCC2)cccc1-4 [Example 410, (7R)-14-cyclohexyl-18,24-dimethyl-4-(morpholin-4-ylmethyl)-7,8-dihydro-6H-7,11-(epiminoethanoiminoethanoiminothioiminomethano)-indolo[1,2-e][1,5]benzoxazocin-15-one 17,17-dioxide] gave an IC50 (Table 4, various macrocycles) of 25 to 150 nM.
With CN1CCN(C)[C@H]2COc3c(OCc4ccccc4)cccc3-c3c(C4CCCCC4)c4ccc(cc4n3C2)C(=O)NS(=O)(=O)N(C)CC1 [Example 411, (7R)-4-(benzyloxy)-14-cyclohexyl-18,21,24-trimethyl-7,8-dihydro-6H-7,11-(epiminoethanoiminoethanoiminothioiminomethano)-indolo[1,2-e][1,5]benzoxazocin-15-one 17,17-dioxide] the IC50 (Table 4, various macrocycles) was 25 to 150 nM.
In the case of COc1cccc2c1OCC1Cn3c-2c(C2CCCCC2)c2ccc(cc23)C(=O)NS(=O)(=O)N(C)CCN(C)CCN1C [Example 412, (7R)-14-cyclohexyl-4-methoxy-18,21,24-trimethyl-7,8-dihydro-6H-7,11-(epiminoethanoiminoethanoiminothioiminomethano)-indolo[1,2-e][1,5]benzoxazocin-15-one 17,17-dioxide], the IC50 (Table 4, various macrocycles) is reported as < 25 nM.
Work on CN1C2CCN(CCC3COc4ccccc4-c4c(C5CCCCC5)c5ccc(cc5n4C3)C(=O)NS1(=O)=O)CC2 (centres unmarked) [Example 504, 30-cyclohexyl-23-methyl-6-oxa-22-thia-1,14,21,23-tetraazahexacyclo[22.2.2.1^4,14.1^13,16.1^15,19.0^7,12]hentriaconta-7,9,11,13(30),15(29),16,18-heptaen-20-one 22,22-dioxide] yielded an IC50 [2] of 25 to 150 nM.
In the case of O=C1NS(=O)(=O)N2CCCN(CCCC3COc4ccccc4-c4c(C5CCCCC5)c5ccc1cc5n4C3)CC2 (centres unmarked) [Example 508, 31-cyclohexyl-18-oxa-2-thia-1,3,10,24-tetraazahexacyclo[22.3.2.1^5,9.1^8,11.1^10,20.0^12,17]dotriaconta-5(32),6,8,11(31),12,14,16-heptaen-4-one 2,2-dioxide], the IC50 [2] is reported as 25 to 150 nM.
